We go through 16 compounds from ChEMBL document CHEMBL5113380, “Functionalized quinoxalinones as privileged structures with broad-ranging pharmacological activities” (Eur J Med Chem, 2022).

Molecules are shown by their SMILES. ≈ marks a conversion by molar mass, not a printed value. A value given as a limit tells only on which side of the number the result lay.

As usually defined, the solubility is the concentration that dissolves in the medium under given conditions. A word on the IC50: it is the concentration that gives 50% inhibition. A high value points to weaker potency. The term EC50 denotes the concentration at which the effect is half-maximal. The low end stands for an effect from little substance, the high end for a need for much substance. As usually defined, the half-life is the time needed for the level to fall by half in the phase considered. By Ki is commonly meant the equilibrium dissociation constant of an inhibitor or competing ligand from its target. Broadly, the MIC is the least concentration at which growth counts as inhibited. High values mean a less susceptible organism, low ones a more susceptible organism.

Data set [1] is described as follows: Aqueous solubility of the compound at pH 7.4. Type of data set: physicochemical. The conditions noted are these: buffer.
Data set [2] is described as follows: Binding affinity to estrogen receptor (unknown origin). Also noted: species or system Homo sapiens.
The species named for data set [3] is Homo sapiens. Nature of the data set: Binding affinity to estrogen receptor (unknown origin) relative to control.
The species entered for data set [4] is Homo sapiens. Nature of the data set: Binding affinity to Creatine kinase (CK) (unknown origin) relative to control.
The nature of data set [5]: Binding affinity to Creatine kinase (CK) (unknown origin). Also noted: species or system Homo sapiens.
Data set [6] can be described thus: Metabolic stability in rat liver microsomes assessed as half-life. The data set is classed as ADME, Microsome. For orientation: Microsomes from liver hold many membrane-bound enzymes, among them those of drug oxidation.
Data set [7] is filed under the species Homo sapiens. Nature of the data set: Ratio IC50 for inhibition of JNK1 (unknown origin) over JNK3 (unknown origin).
The species named for data set [8] is Homo sapiens. Nature of the data set: Ratio IC50 for inhibition of JNK2 (unknown origin) over JNK3 (unknown origin).
The target in data set [9] is Glutamate receptor ionotropic AMPA (Homo sapiens, UniProt P42261+P42262+P42263+P48058). Nature of the data set: Antagonist activity at AMPA receptor (unknown origin). The data set is classed as protein-complex assay.
The test system of another data set is HeLa S3. Nature of the data set: Cytotoxicity against human HeLa S3 cells. The data set is classed as functional, cell-based.
Data set [10] concerns the target Glutamate [NMDA] receptor. Nature of the data set: Displacement of [3H]DCKA from NMDA receptor (unknown origin). The data set is classed as protein-complex assay, Homo sapiens.
Data set [11] concerns the target Glutamate [NMDA] receptor (Homo sapiens) (UniProt Q05586+Q12879+Q13224+O15399+O60391+Q14957+Q8TCU5). Nature of the data set: Displacement of [3H]DCKA from NMDA receptor (unknown origin) at 10 ng/ml relative to control. The conditions noted are these: filed as antagonist. Type of data set: protein-complex assay. (In general: In a radioligand displacement assay an active substance lowers the binding of a labelled ligand.)

For the next data set, the target named is T1, Alpha amylase (Homo sapiens, UniProt P0DUB6).
T1 sequence (P0DUB6 whole entry): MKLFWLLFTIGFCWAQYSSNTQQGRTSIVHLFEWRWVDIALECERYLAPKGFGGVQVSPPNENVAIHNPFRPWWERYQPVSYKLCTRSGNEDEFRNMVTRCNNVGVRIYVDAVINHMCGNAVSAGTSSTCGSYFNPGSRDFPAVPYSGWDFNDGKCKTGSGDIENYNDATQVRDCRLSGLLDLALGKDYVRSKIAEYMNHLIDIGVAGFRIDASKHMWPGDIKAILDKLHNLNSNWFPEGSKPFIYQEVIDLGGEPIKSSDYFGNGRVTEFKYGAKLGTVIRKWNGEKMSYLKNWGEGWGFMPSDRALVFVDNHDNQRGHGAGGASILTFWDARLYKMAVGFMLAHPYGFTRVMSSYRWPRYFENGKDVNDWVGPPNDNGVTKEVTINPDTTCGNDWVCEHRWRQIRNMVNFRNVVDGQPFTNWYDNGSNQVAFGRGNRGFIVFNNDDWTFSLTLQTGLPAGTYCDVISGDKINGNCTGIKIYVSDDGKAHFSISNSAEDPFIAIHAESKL
Nature of the data set: Inhibition of alpha-amylase (unknown origin).

For data set [12], the target named is Phospholipase A2, major isoenzyme (Sus scrofa, UniProt P00592). Nature of the data set: Inhibition of porcine PLA2G1B.
Chain of Phospholipase A2, major isoenzyme (P00592 whole entry): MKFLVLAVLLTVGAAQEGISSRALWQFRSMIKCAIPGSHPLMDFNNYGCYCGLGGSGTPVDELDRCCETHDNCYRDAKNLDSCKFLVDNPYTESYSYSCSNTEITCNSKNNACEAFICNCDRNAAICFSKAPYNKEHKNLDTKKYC
For data set [13], the target named is T2, Group XIIA secretory phospholipase A2 (Homo sapiens, UniProt Q9BZM1).
T2 sequence (Q9BZM1 whole entry): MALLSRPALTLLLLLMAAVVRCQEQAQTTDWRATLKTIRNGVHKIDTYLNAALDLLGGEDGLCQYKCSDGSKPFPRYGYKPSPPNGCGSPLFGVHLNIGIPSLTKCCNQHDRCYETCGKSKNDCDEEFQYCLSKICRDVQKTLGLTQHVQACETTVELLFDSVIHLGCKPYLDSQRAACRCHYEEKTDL
Nature of the data set: Inhibition of human PLA2G12A.

The next data set has as its target T3, Phospholipase A2 group V (Homo sapiens, UniProt P39877).
T3 sequence (P39877 whole entry): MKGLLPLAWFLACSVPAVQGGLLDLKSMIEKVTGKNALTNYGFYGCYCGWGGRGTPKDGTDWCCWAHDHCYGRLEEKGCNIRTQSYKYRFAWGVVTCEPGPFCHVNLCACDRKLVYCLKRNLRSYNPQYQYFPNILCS
Nature of the data set: Inhibition of human PLA2G5.

For data set [14], the target named is T4, Phospholipase A2, membrane associated (Homo sapiens, UniProt P14555).
T4 sequence (P14555 whole entry): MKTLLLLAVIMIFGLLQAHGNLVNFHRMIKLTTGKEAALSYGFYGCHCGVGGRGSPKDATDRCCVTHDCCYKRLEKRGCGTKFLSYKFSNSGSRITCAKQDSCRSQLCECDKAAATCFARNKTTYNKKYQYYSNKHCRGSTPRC
Nature of the data set: Inhibition of human PLA2G2A.

Data set [15] addresses T5, Group 10 secretory phospholipase A2 (Homo sapiens, UniProt O15496).
T5 sequence (O15496 whole entry): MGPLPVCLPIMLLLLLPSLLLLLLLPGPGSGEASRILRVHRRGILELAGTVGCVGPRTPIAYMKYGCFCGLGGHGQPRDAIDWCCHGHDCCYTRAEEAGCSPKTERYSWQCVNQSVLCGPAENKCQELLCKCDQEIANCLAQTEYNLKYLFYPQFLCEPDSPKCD
Nature of the data set: Inhibition of human PLA2G10.

Another data set deals with SMMC-7721. Nature of the data set: Antiproliferative activity against human SMMC-7721 cells. Type of data set: functional, cell-based.
In a further data set the test system is HT-29. Nature of the data set: Antiproliferative activity against human HT-29 cells. The data set is classed as functional, cell-based.
A further data set has as its system HeLa. Nature of the data set: Antiproliferative activity against human HeLa cells. Type of data set: functional, cell-based.
The test system of data set [16] is Anopheles sp. Nature of the data set: Larvicidal activity against Anopheles at 1 ug/ml. The note with it: dose 1.0 µg/ml. Type of data set: functional.
Data set [17] relates to Anopheles sp. Nature of the data set: Larvicidal activity against Anopheles at 0.1 ug/ml. Type of data set: functional. The note with it: dose 0.1 µg/ml.
For data set [18], the system named is Anopheles sp. Nature of the data set: Larvicidal activity against Anopheles at 0.25 ug/ml. Type of data set: functional. The conditions noted are these: dose 0.25 µg/ml.
The test system of data set [19] is Anopheles sp. Nature of the data set: Larvicidal activity against Anopheles at 0.5 ug/ml. The data set is classed as functional. The note with it: dose 0.5 µg/ml.
Data set [20] concerns the target Glutamate [NMDA] receptor. Nature of the data set: Displacement of [3H]L-689560 from NMDA receptor (unknown origin). Type of data set: protein-complex assay, Homo sapiens.
Data set [21] in a line: Aqueous solubility of the compound. Type of data set: physicochemical. The note with it: buffer.
Data set [22] has as its target Glutamate [NMDA] receptor. Nature of the data set: Displacement of [3H]NMDA from NMDA receptor (unknown origin). The data set is classed as protein-complex assay, Homo sapiens.
A further data set relates to Staphylococcus aureus. Nature of the data set: Antibacterial activity against Staphylococcus aureus. The data set is classed as functional.
In a further data set the test system is Pseudomonas aeruginosa. Nature of the data set: Antibacterial activity against Pseudomonas aeruginosa. The data set is classed as functional.
The test system of a further data set is Escherichia coli. Nature of the data set: Antibacterial activity against Escherichia coli. Type of data set: functional.
Another data set concerns Candida. Nature of the data set: Antifungal activity against Candida species. The data set is classed as functional.
For a further data set, the system named is Rattus norvegicus. Nature of the data set: Antiinflammatory activity in rat model of hind paw edema assessed as paw thickness at 0.9 mg per 100 g of body weight measured after 4 hrs. The data set is classed as functional.
The nature of data set [23]: Displacement of [3H]AMPA from NMDA receptor (unknown origin). The data set is classed as protein-complex assay, Homo sapiens.
In data set [24] the target is Glutamate [NMDA] receptor. Nature of the data set: Displacement of [3H]kainic acid from NMDA receptor (unknown origin). The data set is classed as protein-complex assay, Homo sapiens.
Data set [25] concerns the target Glutamate [NMDA] receptor. Nature of the data set: Displacement of [3H]CGP-39653 from NMDA receptor (unknown origin). Type of data set: protein-complex assay, Homo sapiens.

In data set [1], `CC[C@H]1C(=O)N(CC)c2ccc(F)cc2N1C(=O)c1ccc(O)cc1O` registered a solubility of more than 100 µg/mL. The same compound returned an IC50 in data set [2] of 5.4 nM. The Activity was determined as 92% in the data set filed under Homo sapiens [3] and 44% in the data set filed under Homo sapiens [4]. In data set [5], this compound showed an EC50 of 50 nM. Moreover, the half-life in data set [6] was more than 30 min.

As for `O=C1Nc2ccccc2N/C1=C\C(=O)c1cccc2ccccc12`, the Ratio IC50 in the data set filed under Homo sapiens [7] and in the data set listed under Homo sapiens [8] was more than 400 each time.

`Cc1cc2[nH]c(=O)c(=O)n(C[C@H](N)C(=O)O)c2cc1C` came in with an EC50 in data set [9] of 290000 nM.

In turn, `N#Cc1ccc2c(c1)N1CCCCC1C(=O)N2` (stereo unspecified) came in with a half-inhibitory concentration (IC50) with HeLa S3 of 7600 nM.

As for `O=C(O)CC1CCc2cc(Cl)cc3[nH]c(=O)c(=O)n1c23` (stereo unspecified), the affinity in data set [10], expressed as Ki, was 5.1 nM. The Activity in data set [11] is 90.3%.

`Cc1cc2[nH]c(=O)c(=O)n(C[C@@H](N)C(=O)O)c2cc1C`: the EC50 in [9] worked out at 300000 nM.

Consider `O=c1[nH]c2ccccc2n2c(-c3ccc(Cl)c(Cl)c3)ccc12`, for which the IC50 against Alpha amylase was found to be 431810 nM; in data set [12], 14500 nM; in data set [13] it was 1410 nM; on Phospholipase A2 group V it was 3040 nM; in [14], 1810 nM; in [15] it was 2710 nM.

With `COC(=O)c1ccc2c(c1)NCCN2Cc1cc(OC)c(OC)c(OC)c1`, the IC50 in the data set on SMMC-7721 amounted to 427 nM; in the data set with HT-29 it was 510 nM; in the data set on HeLa, 194 nM.

As to `C=Cn1c(=O)c(-c2ccccc2)nc2ccc(OC)cc21`, the Activity with Anopheles sp. [16] is 100%; in the data set on Anopheles sp. [17], 80%; with Anopheles sp. [18] it was 100%; in the data set on Anopheles sp. [19] it was 100%.

On to `CCC(c1c(Cl)c(Cl)cc2nc(O)c(O)nc12)n1cnnc1` (stereo unspecified), for which the values for the IC50 in [20] and in data set [22] were 2.6 nM and 90 nM, respectively. Besides, in data set [21], the solubility is more than 5000 µg/mL.

`COc1ccc2c(c1)[nH]c(=O)c(=O)n2Cc1cc(OC)c(OC)c(OC)c1`: the IC50 in the data set with SMMC-7721 came out at 1600 nM; in the data set on HT-29 it was 1480 nM; with HeLa it was 693 nM.

For the compound `O=c1[nH]c2cc3cccnc3c(Cl)c2nc1CBr`, the minimal inhibitory concentration (MIC) with Staphylococcus aureus, with Pseudomonas aeruginosa, with Escherichia coli and in the data set on Candida was 31.2 µg/mL (≈ 96.3 µM) in each case.

On to `CCCn1cnc(Cc2c(Cl)c(Cl)cc3nc(O)c(O)nc23)c1`, for which the IC50 in data set [20] was determined as 4.4 nM; in data set [22], 350 nM. This compound also showed a solubility in [21] of more than 10000 µg/mL.

In the case of `O=c1[nH]c2ccccc2nc1Cc1nnc(S)n1-c1ccccc1`, the Activity with Rattus norvegicus was determined as 0.47 mm.

In the case of `O=C(O)CC1CCc2cc(Br)cc3[nH]c(=O)c(=O)n1c23` (stereo unspecified), the values for the IC50 in data set [23], in data set [24] and in data set [25] were 4600 nM, more than 30000 nM and more than 30000 nM, respectively. Further, the affinity in [10] corresponds to a Ki of 9.9 nM.

For the compound `N#Cc1ccc2c(c1)N/C(=C\C(=O)c1cccc3ccccc13)C(=O)N2`, the Ratio IC50 in the data set listed under Homo sapiens [7] and in the data set listed under Homo sapiens [8] was more than 500 throughout.
